# Reference: patent publication US20190209682A1, “ISOFORM-SPECIFIC, CONTEXT-PERMISSIVE TGFB1 INHIBITORS AND USE THEREOF” (Scholar Rock, Inc., priority 2017, published 2019)
# What was measured:
# [1] = Rat toxicity study, Phase II; format: in vivo
# [2] = test system: tonic SMAD2/3 signaling in BAL cells; experiment: Pharmacodynamics, tonic phospho-SMAD2/3 in BAL cells of healthy rats; format: in vivo, rat; details: single oral gavage dose 100 mg/kg, 2 hours post-dosing
# Method: To confirm isoform-selective inhibition of TGFβ1 in vivo, a pharmacodynamics study was conducted in which effects of Ab3 on tonic phospho-SMAD2/3 levels were assessed in bronchoalveolar lavage (BAL) cells collected from healthy rats. It is reported in the literature that under homeostatic conditions, BAL cells predominantly express TGFβ2/3, but little TGFβ1, while the latter becomes preferentially elevated in pathologic conditions.
# Healthy Sprague Dawley rats (approximately 6-8 weeks old, weighing 200-250 g at the beginning of the study; Charles River) were randomized by bodyweight into study groups and dosed as described below.
# Animals received test antibodies (huNEG-mIgG1, […], or Ab3) on Days 1, 8, and 15 by intraperitoneal injection. Animals are euthanized on Day 16 for BAL and serum collections. One group of control animals was dosed with a single oral gavage (PO) dose of LY2109761 (small molecule ALK5 inhibitor) at 100 mg/kg and was euthanized at 2 hours (+/−20 min) post-dosing for BAL collections.
# To collect BAL samples, the whole lung was lavaged three times with 5.0 mL of ice-cold Dulbecco's phosphate buffered saline. […]
# Phospho-SMAD2/3 assays were performed by ELISA (Cell Signaling Technologies) according to the manufacturer's instructions. Results were assessed by phosphorylated-to-total SMAD2/3 ratios.
# [3] = Rat toxicity study, Phase I; details: for Aortic root: Hemorrhage, Minimal / Aortic root: Infiltrate, mixed cell, Minimal / Atrium: Hemorrhage, Minimal / Atrium: Hyperplasia, endothelium, Minimal / Atrium: Infiltrate, mixed cell, Minimal / Atrium: Infiltrate, mixed cell, Slight / Coronary artery: Necrosis with inflammation, Slight / Heart valves: Valvulopathy, Minimal / Heart valves: Valvulopathy, Moderate / Heart valves: Valvulopathy, Slight / Myocardium: Degeneration/necrosis, Minimal / Myocardium: Degeneration/necrosis, Slight / Myocardium: Hemorrhage, Slight / Myocardium: Infiltrate, mixed cell, Slight: incidence
# Method: Animal body weight was determined at days 1, 3, and 7 of the dosing phase. Animals were sacrificed at day 8 and necropsies performed.
# [4] = 200 mg/kg oral gavage once daily for five days
structure (smiles),measurement,setting,value
c1ccc(-c2nn3c(c2-c2ccnc4cc(OCCN5CCOCC5)ccc24)CCC3)nc1 [LY2109761],Heart weights,[1]; 200 mg/kg,increased heart weights
same,Liver weights,[1]; 200 mg/kg,Increased liver weights
same,Thymus weights,[1]; 200 mg/kg,decreased thymus weights
same,Thyroid weights,[1]; 200 mg/kg,increased thyroid weights
same,Uterus weights,[1]; 200 mg/kg,decreased uterus weights
same,Heart findings,[1]; [4],test article-related heart findings occurred
same,"Microscopic findings in bones, liver, pancreas (artery), thymus, thyroid, female reproductive tissues, mammary gland",[1]; [4],microscopic findings occurred
same,Tonic SMAD2/3 signaling (phosphorylated-to-total SMAD2/3 ratio),[2],significantly suppressed
same,Animals found dead at day 7,"[3]; 200 mg/kg oral gavage once daily, n=5",Two
same,"Aortic root: Hemorrhage, Minimal","[3]; 200 mg/kg/day, n=5",1
same,"Aortic root: Infiltrate, mixed cell, Minimal","[3]; 200 mg/kg/day, n=5",1
same,"Atrium: Hemorrhage, Minimal","[3]; 200 mg/kg/day, n=5",1
same,"Atrium: Hyperplasia, endothelium, Minimal","[3]; 200 mg/kg/day, n=5",1
same,"Atrium: Infiltrate, mixed cell, Minimal","[3]; 200 mg/kg/day, n=5",2
same,"Atrium: Infiltrate, mixed cell, Slight","[3]; 200 mg/kg/day, n=5",0
same,"Coronary artery: Necrosis with inflammation, Slight","[3]; 200 mg/kg/day, n=5",0
same,"Heart valves: Valvulopathy, Minimal","[3]; 200 mg/kg/day, n=5",1
same,"Heart valves: Valvulopathy, Moderate","[3]; 200 mg/kg/day, n=5",1
same,"Heart valves: Valvulopathy, Slight","[3]; 200 mg/kg/day, n=5",3
same,"Myocardium: Degeneration/necrosis, Minimal","[3]; 200 mg/kg/day, n=5",0
same,"Myocardium: Degeneration/necrosis, Slight","[3]; 200 mg/kg/day, n=5",1
same,"Myocardium: Hemorrhage, Slight","[3]; 200 mg/kg/day, n=5",1
same,"Myocardium: Infiltrate, mixed cell, Slight","[3]; 200 mg/kg/day, n=5",0
same,Mortality,"[3]; 300 mg/kg oral gavage once daily, days 3, 6, or 7, all animals, n=5",sacrificed in a moribund condition or found dead
same,"Aortic root: Hemorrhage, Minimal","[3]; 300 mg/kg/day, n=5",0
same,"Aortic root: Infiltrate, mixed cell, Minimal","[3]; 300 mg/kg/day, n=5",0
same,"Atrium: Hemorrhage, Minimal","[3]; 300 mg/kg/day, n=5",2
same,"Atrium: Hyperplasia, endothelium, Minimal","[3]; 300 mg/kg/day, n=5",3
same,"Atrium: Infiltrate, mixed cell, Minimal","[3]; 300 mg/kg/day, n=5",3
same,"Atrium: Infiltrate, mixed cell, Slight","[3]; 300 mg/kg/day, n=5",1
same,"Coronary artery: Necrosis with inflammation, Slight","[3]; 300 mg/kg/day, n=5",1
same,"Heart valves: Valvulopathy, Minimal","[3]; 300 mg/kg/day, n=5",2
same,"Heart valves: Valvulopathy, Moderate","[3]; 300 mg/kg/day, n=5",0
same,"Heart valves: Valvulopathy, Slight","[3]; 300 mg/kg/day, n=5",3
same,"Myocardium: Degeneration/necrosis, Minimal","[3]; 300 mg/kg/day, n=5",1
same,"Myocardium: Degeneration/necrosis, Slight","[3]; 300 mg/kg/day, n=5",1
same,"Myocardium: Hemorrhage, Slight","[3]; 300 mg/kg/day, n=5",0
same,"Myocardium: Infiltrate, mixed cell, Slight","[3]; 300 mg/kg/day, n=5",1
same,Animals with clear fluid in the thoracic cavity and enlarged thymus (edema),"[3]; 300 mg/kg, found dead on Day 3",one
same,Animals with abnormally-shaped sternum,"[3]; each treatment group, 200 mg/kg or 300 mg/kg",four
same,Bone findings,"[3]; sternum, femur and tibia, higher incidence and/or severity with LY2109761",macroscopic abnormally shaped sternum and microscopic increased thickness of the hypertrophic zone
same,"Heart valve findings, microscopic",[3]; ≥200 mg/kg,valvulopathy
same,Heart weights,[3]; ≥200 mg/kg,Increased heart weights
